Laboratory results taken from the supplement of paper PMC10733146.

Columns and labels:
Experiment in all cases: viability relative to DMSO control (fraction); higher = less drug effect (more viable cells)
Details in all cases: 48 h
Palbociclib = compound: CC(=O)c1c(C)c2cnc(Nc3ccc(N4CCNCC4)cn3)nc2n(C2CCCC2)c1=O [Palbociclib]
Outline: (§1)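 Using 384-well plates with compounds already plated at five concentrations, one well per concentration, 4 × 10^4 primary mononuclear tumour cells were added per well. Cells were Ficoll-isolated from blood or bone marrow or came from processed lymph node, fresh or cryopreserved. They were kept for 48 h at 37 °C and 5% CO2 in RPMI-1640 supplemented with penicillin/streptomycin, L-glutamine and human serum, and viability was read as CellTiter-Glo luminescence relative to the median of 16 inner DMSO wells.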

SGC 0946 = compound: CC(C)N(CCCNC(=O)Nc1ccc(C(C)(C)C)cc1)C[C@H]1O[C@@H](n2cc(Br)c3c(N)ncnc32)[C@H](O)[C@@H]1O [SGC 0946]
Outline: as §1

Venetoclax = compound: CC1(C)CCC(CN2CCN(c3ccc(C(=O)NS(=O)(=O)c4ccc(NCC5CCOCC5)c([N+](=O)[O-])c4)c(Oc4cnc5[nH]ccc5c4)c3)CC2)=C(c2ccc(Cl)cc2)C1 [Venetoclax]
Outline: as §1

Navitoclax = compound: CC1(C)CCC(c2ccc(Cl)cc2)=C(CN2CCN(c3ccc(C(=O)NS(=O)(=O)c4ccc(N[C@H](CCN5CCOCC5)CSc5ccccc5)c(S(=O)(=O)C(F)(F)F)c4)cc3)CC2)C1 [Navitoclax]
Outline: as §1

EPZ-6438 = compound: CCN(c1cc(-c2ccc(CN3CCOCC3)cc2)cc(C(=O)NCc2c(C)cc(C)[nH]c2=O)c1C)C1CCOCC1 [EPZ-6438]
Outline: as §1

CPI-169 = compound: CCS(=O)(=O)N1CCC([C@@H](C)n2c(C)c(C(=O)NCc3c(OC)cc(C)[nH]c3=O)c3ccccc32)CC1 [CPI-169]
Outline: as §1

Roscovitine = compound: CC[C@H](CO)Nc1nc(NCc2ccccc2)c2ncn(C(C)C)c2n1 [Roscovitine]
Outline: as §1

[1] = compound: CCc1ccc(/C=C2/SC(=S)NC2=O)cc1
Outline: as §1

Etoposide = compound: COc1cc([C@@H]2c3cc4c(cc3[C@@H](O[C@@H]3O[C@@H]5CO[C@@H](C)O[C@H]5[C@H](O)[C@H]3O)[C@H]3COC(=O)[C@H]23)OCO4)cc(OC)c1O [Etoposide]
Outline: as §1

Tofacitinib = compound: C[C@@H]1CCN(C(=O)CC#N)C[C@@H]1N(C)c1ncnc2[nH]ccc12 [Tofacitinib]
Outline: as §1

Duvelisib = compound: C[C@H](Nc1ncnc2nc[nH]c12)c1cc2cccc(Cl)c2c(=O)n1-c1ccccc1 [Duvelisib]
Outline: as §1

Selinexor = compound: O=C(/C=C\n1cnc(-c2cc(C(F)(F)F)cc(C(F)(F)F)c2)n1)NNc1cnccn1 [Selinexor]
Outline: as §1

[2] = compound: O=C(Nc1ccc2[nH]nc(-c3ccncc3)c2c1)[C@@H]1CCN(CC(=O)N2CCN(c3ccc(-c4ncccn4)cc3)CC2)C1
Outline: as §1

Thalidomide = compound: O=C1CCC(N2C(=O)c3ccccc3C2=O)C(=O)N1 [Thalidomide]
Outline: as §1

## primary DLBCL patient cells (S082)
Palbociclib; 0.024 µM
  viability: 0.976
Palbociclib; 0.12 µM
  viability: 0.92
Palbociclib; 0.6 µM
  viability: 0.847
Palbociclib; 3 µM
  viability: 0.848
Palbociclib; 15 µM
  viability: 0.712
SGC 0946; 0.024 µM
  viability: 0.899
SGC 0946; 0.12 µM
  viability: 0.975
SGC 0946; 0.6 µM
  viability: 0.932
SGC 0946; 3 µM
  viability: 0.91
SGC 0946; 15 µM
  viability: 0.834
Venetoclax; 0.00064 µM
  viability: 1.01
Venetoclax; 0.0032 µM
  viability: 0.876
Venetoclax; 0.016 µM
  viability: 0.547
Venetoclax; 0.08 µM
  viability: 0.143
Venetoclax; 0.4 µM
  viability: 0.0409
Navitoclax; 0.0032 µM
  viability: 1.03
Navitoclax; 0.016 µM
  viability: 1
Navitoclax; 0.08 µM
  viability: 0.772
Navitoclax; 0.4 µM
  viability: 0.286
Navitoclax; 2 µM
  viability: 0.0483
EPZ-6438; 0.024 µM
  viability: 0.978
EPZ-6438; 0.12 µM
  viability: 0.97
EPZ-6438; 0.6 µM
  viability: 0.962
EPZ-6438; 3 µM
  viability: 0.896
EPZ-6438; 15 µM
  viability: 0.905
CPI-169; 0.024 µM
  viability: 0.893
CPI-169; 0.12 µM
  viability: 0.906
CPI-169; 0.6 µM
  viability: 0.87
CPI-169; 3 µM
  viability: 0.859
CPI-169; 15 µM
  viability: 0.866
Roscovitine; 0.032 µM
  viability: 0.912
Roscovitine; 0.16 µM
  viability: 0.84
Roscovitine; 0.8 µM
  viability: 0.935
Roscovitine; 4 µM
  viability: 0.975
Roscovitine; 20 µM
  viability: 0.852
[1]; 0.024 µM
  viability: 0.764
[1]; 0.12 µM
  viability: 0.807
[1]; 0.6 µM
  viability: 0.905
[1]; 3 µM
  viability: 0.871
[1]; 15 µM
  viability: 0.821
Etoposide; 0.032 µM
  viability: 1.08
Etoposide; 0.16 µM
  viability: 1.02
Etoposide; 0.8 µM
  viability: 0.974
Etoposide; 4 µM
  viability: 1
Etoposide; 20 µM
  viability: 0.664
Tofacitinib; 0.024 µM
  viability: 0.93
Tofacitinib; 0.12 µM
  viability: 0.941
Tofacitinib; 0.6 µM
  viability: 0.967
Tofacitinib; 3 µM
  viability: 1.08
Tofacitinib; 15 µM
  viability: 1.02
Duvelisib; 0.0016 µM
  viability: 0.758
Duvelisib; 0.008 µM
  viability: 0.689
Duvelisib; 0.04 µM
  viability: 0.679
Duvelisib; 0.2 µM
  viability: 0.65
Duvelisib; 1 µM
  viability: 0.619
Selinexor; 0.008 µM
  viability: 0.931
Selinexor; 0.04 µM
  viability: 0.971
Selinexor; 0.2 µM
  viability: 1.03
Selinexor; 1 µM
  viability: 0.939
Selinexor; 5 µM
  viability: 0.917
[2]; 0.008 µM
  viability: 0.875
[2]; 0.04 µM
  viability: 0.771
[2]; 0.2 µM
  viability: 0.809
[2]; 1 µM
  viability: 0.79
[2]; 5 µM
  viability: 0.743
Thalidomide; 0.032 µM
  viability: 0.969
Thalidomide; 0.16 µM
  viability: 0.938
Thalidomide; 0.8 µM
  viability: 0.969
Thalidomide; 4 µM
  viability: 0.927
Thalidomide; 20 µM
  viability: 1.01

## primary FL patient cells (S022)
Palbociclib; 0.024 µM
  viability: 1.07
Palbociclib; 0.12 µM
  viability: 0.973
Palbociclib; 0.6 µM
  viability: 0.986
Palbociclib; 3 µM
  viability: 0.865
Palbociclib; 15 µM
  viability: 0.33
SGC 0946; 0.024 µM
  viability: 0.902
SGC 0946; 0.12 µM
  viability: 0.937
SGC 0946; 0.6 µM
  viability: 0.808
SGC 0946; 3 µM
  viability: 0.9
SGC 0946; 15 µM
  viability: 0.484
Venetoclax; 0.00064 µM
  viability: 1.01
Venetoclax; 0.0032 µM
  viability: 0.894
Venetoclax; 0.016 µM
  viability: 0.67
Venetoclax; 0.08 µM
  viability: 0.313
Venetoclax; 0.4 µM
  viability: 0.066
Navitoclax; 0.0032 µM
  viability: 1.05
Navitoclax; 0.016 µM
  viability: 1.02
Navitoclax; 0.08 µM
  viability: 0.724
Navitoclax; 0.4 µM
  viability: 0.329
Navitoclax; 2 µM
  viability: 0.0687
EPZ-6438; 0.024 µM
  viability: 1.08
EPZ-6438; 0.12 µM
  viability: 1.04
EPZ-6438; 0.6 µM
  viability: 0.978
EPZ-6438; 3 µM
  viability: 0.997
EPZ-6438; 15 µM
  viability: 0.892
CPI-169; 0.024 µM
  viability: 1.07
CPI-169; 0.12 µM
  viability: 0.933
CPI-169; 0.6 µM
  viability: 1.14
CPI-169; 3 µM
  viability: 0.97
CPI-169; 15 µM
  viability: 0.953
Roscovitine; 0.032 µM
  viability: 1.03
Roscovitine; 0.16 µM
  viability: 1.03
Roscovitine; 0.8 µM
  viability: 1.05
Roscovitine; 4 µM
  viability: 0.992
Roscovitine; 20 µM
  viability: 0.781
[1]; 0.024 µM
  viability: 0.83
[1]; 0.12 µM
  viability: 0.883
[1]; 0.6 µM
  viability: 0.901
[1]; 3 µM
  viability: 0.829
[1]; 15 µM
  viability: 0.842
Etoposide; 0.032 µM
  viability: 0.967
Etoposide; 0.16 µM
  viability: 0.975
Etoposide; 0.8 µM
  viability: 0.921
Etoposide; 4 µM
  viability: 0.987
Etoposide; 20 µM
  viability: 0.783
Tofacitinib; 0.024 µM
  viability: 0.904
Tofacitinib; 0.12 µM
  viability: 0.859
Tofacitinib; 0.6 µM
  viability: 0.936
Tofacitinib; 3 µM
  viability: 0.914
Tofacitinib; 15 µM
  viability: 0.894
Duvelisib; 0.0016 µM
  viability: 0.949
Duvelisib; 0.008 µM
  viability: 0.933
Duvelisib; 0.04 µM
  viability: 0.988
Duvelisib; 0.2 µM
  viability: 0.82
Duvelisib; 1 µM
  viability: 0.873
Selinexor; 0.008 µM
  viability: 0.987
Selinexor; 0.04 µM
  viability: 0.861
Selinexor; 0.2 µM
  viability: 0.779
Selinexor; 1 µM
  viability: 0.383
Selinexor; 5 µM
  viability: 0.333
[2]; 0.008 µM
  viability: 0.888
[2]; 0.04 µM
  viability: 0.929
[2]; 0.2 µM
  viability: 0.895
[2]; 1 µM
  viability: 0.911
[2]; 5 µM
  viability: 0.96
Thalidomide; 0.032 µM
  viability: 0.988
Thalidomide; 0.16 µM
  viability: 1.09
Thalidomide; 0.8 µM
  viability: 0.952
Thalidomide; 4 µM
  viability: 0.921
Thalidomide; 20 µM
  viability: 0.961
